Patent US6656911B2, “Serine protease inhibitors” (Cortech, Inc., priority 1994, dated 2003)

Target: T1, human neutrophil elastase (HNE) (Homo sapiens, UniProt P08246)
T1 sequence (P08246 30-267): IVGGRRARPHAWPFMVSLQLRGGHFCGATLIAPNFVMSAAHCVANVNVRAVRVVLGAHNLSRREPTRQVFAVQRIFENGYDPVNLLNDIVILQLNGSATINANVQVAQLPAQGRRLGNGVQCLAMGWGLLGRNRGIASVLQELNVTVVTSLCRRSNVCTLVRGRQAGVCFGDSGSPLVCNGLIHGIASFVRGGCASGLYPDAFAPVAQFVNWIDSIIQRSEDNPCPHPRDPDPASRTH
Assay: HNE Ki of CE compounds, tested as described in WO 96/16080
Type: biochemical
Conditions: read-out: HNE Ki

| Ki | SMILES |
| --- | --- |
| 0.27 nM | CC(C)[C@H](NC(=O)[C@@H]1CCCN1C(=O)[C@@H](NC(=O)OCc1ccncc1)C(C)C)C(=O)c1noc(Cc2cccc(C(F)(F)F)c2)n1 [CE2185, 4-Pyridylmethyleneoxycarbonyl-L-valyl-N-[1-(3-[5-(3-trifluoromethylbenzyl)-1,2,4-oxadiazolyl]carbonyl)-2-(S)-methylpropyl]-L-prolinamide] |
| 0.038 nM | Cc1cccc(Cc2nnc(C(=O)[C@@H](NC(=O)[C@@H]3Cc4ccccc4N3C(=O)[C@@H](NC(=O)OCc3ccccc3)C(C)C)C(C)C)o2)c1 [CE2145, (Benzyloxycarbonyl)-L-valyl-2-L-(2,3-dihydro-1H-indole)-N-[1-(2-[5-(3-methylbenzyl)-1,3,4-oxadiazolyl]carbonyl)-2-(S)-methylpropyl]amide] |
| 0.36 nM | CC(C)[C@H](NC(=O)Cn1c(-c2ccc(F)cc2)ccc(N)c1=O)C(=O)c1nnc(Cc2ccc3c(c2)OCO3)o1 [CE2261] |
| 64 nM | Cc1cccc(Cc2nnc(C(=O)[C@@H](NC(=O)CN3C(=O)CN(Cc4ccccc4)C(=O)[C@@H]3Cc3ccccc3)C(C)C)o2)c1 [CE2128, 4-[1-Benzyl-3-(S)-benzylpiperazine-2,5,-dione]-N-[1-(2-(5-(3-methylbenzyl)-1,3,4-oxadiazolyl]carbonyl)-2-(S)-methylpropyl]acetamide] |
| 0.98 nM | CC(C)[C@H](NC(=O)[C@@H]1CCCN1C(=O)[C@@H](NC(=O)OCc1ccccc1)C(C)C)C(=O)c1noc(Cc2cccc(Oc3ccccc3)c2)n1 [CE2066, (Benzyloxycarbonyl)-L-valyl-N-[1-(3-[5-(3-phenoxybenzyl)-1,2,4-oxadiazolyl]carbonyl)-2-(S)-methylpropyl]-L-prolinamide] |
| 0.037 nM | Cc1cccc(Cc2nnc(C(=O)[C@@H](NC(=O)[C@@H]3CCCN3C(=O)[C@@H](NC(=O)OCc3ccncc3)C(C)C)C(C)C)o2)c1 [CE2186, 4-Pyridylmethyleneoxycarbonyl -L-valyl-N-[1-(2-[5-(3-methylbenzyl)-1,3,4-oxadiazolyl]carbonyl)-2-(S)-methylpropyl]-L-prolinamide] |
| 52 nM | Cc1cccc(Cc2nnc(C(=O)[C@@H](NC(=O)CN3C(=O)CNC(=O)C3Cc3ccncc3)C(C)C)o2)c1 (stereo partly drawn) [CE2159, 2-(R,S)-[6-(Methylene-4-pyridyl)piperazine-2,5-dione]-N-[1-(2-[5-(3-methylbenzyl)-1,3,4-oxadiazolyl]carbonyl)-2-(S)-methylpropyl]acetamide] |
| 0.79 nM | CC(C)[C@H](NC(=O)[C@@H]1CCCN1C(=O)[C@@H](NC(=O)OCc1ccccc1)C(C)C)C(=O)c1noc(Cc2cc(-c3ccccc3)cc(-c3ccccc3)c2)n1 [CE2096, (Benzyloxycarbonyl)-L-valyl-N-[1-(3-[5-(3,5-diphenylbenzyl)-1,2,4-oxadiazolyl]carbonyl)-2-(S)-methylpropyl]-L-prolinamide] |
| 0.37 nM | Cc1cc(C)cc(Cc2nc(C(=O)[C@@H](NC(=O)[C@@H]3CCCN3C(=O)[C@@H](NC(=O)OCc3ccccc3)C(C)C)C(C)C)no2)c1 [CE2052, (Benzyloxycarbonyl)-L-valyl-N-[1-(3-[5-(3,5-dimethylbenzyl)-1,2,4-oxadiazolyl)carbonyl)-2-(S)-methylpropyl]-L-prolinamide] |
| 96 nM | Cc1cccc(Cc2nnc(C(=O)C(NC(=O)CN3C(=O)CNCC3Cc3ccccc3)C(C)C)o2)c1 [CE2196, (6-(R)-Benzylpiperazin-2-one)-N-[1-(2-[5-(3-methylbenzyl)-1,3,4-oxadiazolyl]carbonyl)-2-(R,S)-methylpropyl]acetamide] |
| 0.67 nM | Cc1cccc(Cc2nnc(C(=O)[C@@H](NC(=O)Cn3c(-c4cccnc4)ncc(N)c3=O)C(C)C)o2)c1 [CE2263, 2-[5-Amino-6-oxo-2-(3-pyridyl)-1,6-dihydro-1-pyrimidinyl]-N-[1-(2-[5-(3-methylbenzyl)-1,3,4-oxadiazolyl]carbonyl)-2-(S)-methylpropyl]acetamide] |
